Assay results reported in patent publication US7183255B2, “Method for stabilizing blood pressure in hemodialysis subjects” (Intradialytic Pharmaceuticals, priority 2003, dated 2007).
Entries after “also recorded” stand apart in the source; their conditions may differ.

Legend:
Format in all cases: in vivo, human
[1] = Plasma AVP (radioimmunoassay) during constant AVP infusion, control vs hemodialysis periods (Example 1); parameters: plasma concentration of AVP at 2 h: unit not given here; conditions: for plasma concentration of AVP at 2 h: ESRD patients, n=4
Procedure: (§1) Healthy controls and patients with end-stage renal disease (e.g. defined as creatinine clearance of less than 10 ml/min) were studied. The studies were conducted on regularly scheduled hemodialysis days. The duration of hemodialysis remained the same as that prescribed prior to the study period. AVP or placebo (normal saline) was administered at a constant rate of 0.15, 0.3 or o.6 mU/kg/min through a venous line (controls) or through the venous limb of the dialysis circuit (hemodialysis patients). The patient's hemodialysis prescription remained unchanged except for the administration of AVP or placebo. Intradialytic hypotension was treated in the customary manner with the infusion of isotonic and hypertonic fluids.
(§2) Serum AVP levels were determined by a radioimmunoassay technique. Blood pressure was measured with a cuff-type sphygmomanometer at 20 minute intervals.
Plasma AVP is not dialyzed. To examine whether administration of exogenous AVP could prevent intradialytic hypotension, it was first determined whether the dialysis procedure removed the hormone from the blood. To determine this, AVP was administered at doses that had no effect in normal subjects and determined the plasma concentrations and pressure responses to AVP infusion in healthy control subjects and hemodialysis patients.
To rule out the possibility that the lack of a rise in plasma AVP during dialysis was due to the fact that the newly secreted hormone was being dialyzed as was being secreted, we measured plasma AVP during the infusion of exogenous AVP to ERDS patients during control conditions and during hemodialysis.

[2] = Effect of hemodialysis on plasma vasopressin during constant vasopressin infusion (Example 3, Table 1); conditions: for level at 1 h / level at 2 h / level at 0 h: human, plasma, iv, mean±SE; for level at 1 h: 1 h Dialysis; for level at 2 h: 2 h Dialysis; for level at 0 h: Start Dialysis
Procedure: (§3) All patients were studied at regularly scheduled dialysis sessions. Patients underwent conventional hemodialysis with hollow fiber high flux polysulfone dialyzers on volumetric dialysis machines (Cobe Centrysystem 3, Gambro Renal Care Products, Inc., Lakewood, Colo.). Dialysis times were 3.5–4.5 hours. Blood flow was 300–400 mL/min and dialysate was delivered at 600 mL/min. The dialysis bath contained potassium, 2 mEq/L; calcium, 2.5 mEq/L; magnesium, 0.75 mEq/L; and bicarbonate, 40 mEq/L. In those patients who were prescribed dialysate sodium modeling and/or reduced dialysate temperature (35–37° C.) prior to the study, the parameters of these interventions were held constant throughout the study. Ultrafiltration was performed at a constant rate based on the target weight loss for that dialysis session. Oscillometric blood pressure and heart rate measurements were taken at 15–30 minute intervals.
Plasma vasopressin concentration. Vasopressin in plasma was determined as previously described (Landry, D. W., H. R. Levin, et al. (1997). Circulation 95(5): 1122–5).
Administration of vasopressin. In eight normal subjects and eight patients with ESRD off dialysis, 8-arginine vasopressin (vasopressin, American Pharmaceutical Partners, Schaumberg, Ill.) in normal saline was administered through an antecubital intravenous line. In eight patients with ESRD during hemodialysis, vasopressin was infused through the venous (blood return) limb of the dialysis circuit throughout the dialysis session at a rate of 0.15 or 0.3 mU·kg^−1·min^−1.
Effect of hemodialysis on plasma vasopressin concentration during constant infusion of hormone. To determine whether hemodialysis removes vasopressin from plasma (Shimamoto, K., T. Ando, et al. (1977). J Clin Endocrinol Metab 45(4): 818–20; Rosansky, S. J., R. Rhinehart, et al. (1991). Clin Nephrol 35(4): 158–64), we examined the effect of the procedure on the steady state plasma concentration of hormone during constant infusion. Vasopressin was infused for >1 hour to obtain a stable plasma concentration, at which time hemodialysis was initiated.

[3] = tested on: patients with end-stage renal disease; assay: Systolic arterial pressure during AVP infusion in ESRD patients off dialysis (Example 1); conditions: for systolic arterial blood pressure: ESRD, n=12, M ± SD
Procedure: as §1, §2
We discovered that patients with ERSD are hypersensitive to vasopressin's pressor action.
The administration of exogenous AVP to patients with ESDR led to the discovery that these patients are hyper-responsive to the vascular effect of this hormone.

[4] = tested on: hypertensive patients with ESRD on chronic hemodialysis; assay: Randomized double-blinded trial of vasopressin vs placebo during hemodialysis with 0.5 kg increased target weight reduction (Example 3); conditions: vasopressin 0.3 mU·kg^−1·min^−1 during dialysis; for Lowest SAP: p=0.02 vs placebo; for Symptomatic hypotensive episodes: one of eleven patients, p=0.001 vs placebo
Procedure: as §3
Exclusion criteria for all studies were: 1) active vascular disease, including angina, claudication, transient ischemic events, ischemic colitis and Raynaud's disease, 2) a history of prolonged QT syndrome, 3) a history of orthostatic hypotension and 4) a systolic blood pressure greater than 200 mm Hg and/or a diastolic blood pressure greater than 100 mm Hg. Fluid was administered for pressor support at the discretion of the dialysis staff, blinded to the study drug, on the basis of hypotensive episodes during dialysis. Excess fluid removed was defined as the difference between the baseline prescription weight loss and the actual weight loss achieved during the study hemodialysis.
Hemodialysis-induced fluid removal during vasopressin administration in hypertensive patients. 22 patients with ESRD on chronic hemodialysis and hypertension (defined by a systolic arterial pressure greater than 140 mm Hg or the requirement of anti-hypertensive medications to maintain a lower systolic arterial pressure) were studied. A randomized, controlled and double blinded trial compared the effect of vasopressin (0.3 mU·kg^−1·min^−1) or placebo (normal saline) on the capacity to tolerate a 0.5 kg increase in the target weight reduction specified by the standard dialysis prescription. Patients were studied only if their pre-dialysis weight was within ±1 kg. of the mean pre-dialysis weight of the previous three sessions.
Otherwise the hemodialysis routine was unchanged and its management was left to the health care personnel performing the treatment, who where not involved in the study. The nurse administering the hemodialysis treatment managed hypotensive episodes per routine with administration of normal saline and/or a decrease in ultrafiltration rate. Symptomatic hypotension was identified by the nurse conducting the dialysis and criteria included a sudden drop in systolic arterial pressure associated with one or more of the following: lightheadedness, dizziness, cramping, nausea and vomiting.
Statistical Analyses. Analyses were performed using Statistical Package for the Social Sciences, version 9. Changes in hemodynamic parameters within patients during each session and between sessions were analyzed by repeated measures of ANOVA. Analysis of continuous variables between treatment arms was performed using the Friedman (two-way) analysis of variance. All values are expressed as mean±SE unless otherwise stated. P values of less than […] (two-tailed) were considered statistically significant.
Effect of vasopressin administration during increased hemodialysis-induced luid removal. […]

[5] = 0.15 mU/kg · min^−1, infusion 0.15 mU · kg^−1 · min^−1
[6] = 0.3 mU/kg · min^−1, infusion 0.3 mU · kg^−1 · min^−1

SMILES: NC(=O)CC[C@@H]1NC(=O)[C@H](Cc2ccccc2)NC(=O)[C@H](Cc2ccc(O)cc2)NC(=O)[C@@H](N)CSSC[C@@H](C(=O)N2CCC[C@H]2C(=O)N[C@@H](CCCN=C(N)N)C(=O)NCC(N)=O)NC(=O)[C@H](CC(N)=O)NC1=O [AVP, 8-arginine vasopressin]
- clearance of the hormone from the blood by hemodialysis ([1]; HD instituted during constant AVP infusion): does not clear the hormone from the blood
- plasma concentration of AVP at 2 h ([1]; constant infusion dose 0.15, control period): 25.7
- plasma concentration of AVP at 2 h ([1]; constant infusion dose 0.15, hemodialysis period): 28.9
- plasma concentration of AVP at 2 h ([1]; constant infusion dose 0.3, control period): 47.4
- plasma concentration of AVP at 2 h ([1]; constant infusion dose 0.3, hemodialysis period): 51.2
- plasma concentration of AVP at 2 h ([1]; constant infusion dose 0.6, control period): 100.0
- plasma concentration of AVP at 2 h ([1]; constant infusion dose 0.6, hemodialysis period): 104.6
- plasma level of AVP ([1]; infusion of 0.3 mU/kg/min, hemodialysis patients and control subjects): ~40 pg/m
- level at 1 h [2, 5]: 0.025 ± 0.006 ng/mL
- level at 2 h [2, 5]: 0.029 ± 0.006 ng/mL
- level at 0 h [2, 5]: 0.026 ± 0.004 ng/mL
- level at 1 h [2, 6]: 0.054 ± 0.006 ng/mL
- level at 2 h [2, 6]: 0.052 ± 0.009 ng/mL
- level at 0 h [2, 6]: 0.047 ± 0.006 ng/mL
- change of plasma concentrations of vasopressin by hemodialysis ([2]; steady state during constant infusion, hemodialysis initiated after >1 hour): not significantly changed
- systolic arterial blood pressure ([3]; 30 minutes of AVP infusion): 162 ± 30
- systolic arterial blood pressure ([3]; 60 minutes of AVP infusion): 161 ± 32
- systolic arterial blood pressure ([3]; 90 minutes of AVP infusion): 161 ± 28
- systolic arterial blood pressure ([3]; 120 minutes of AVP infusion): 150 ± 31
- systolic arterial blood pressure ([3]; before infusion (baseline)): 153 ± 28
- pressor action of AVP ([3]; patients with end-stage renal disease, same dose as in normal subjects (FIG. 3B)): increases blood pressure; also recorded: increased systolic arterial blood pressure
- Mean SAP during dialysis ([4]; 11 patients, mean±SE): 145 ± 6 mmHg
- Lowest SAP ([4]; 11 patients, mean±SE, listed as Vasopressin): 130 ± 7 mmHg
- Lowest SAP ([4]; 11 patients, mean±SE, listed as vasopressin): 130±7 mmHg
- Maximum drop in SAP from mean ([4]; 11 patients, mean±SE, p=0.03 vs placebo, listed as Vasopressin): 17 ± 2 mmHg
- Maximum drop in SAP from mean ([4]; 11 patients, mean±SE, p=0.03 vs placebo, listed as vasopressin): 17±2 mmHg
- Symptomatic hypotensive episodes ([4]; listed as Vasopressin): 9 ± 1%
- Symptomatic hypotensive episodes ([4]; listed as vasopressin): 9%
- normal saline administered for pressure support ([4]; p=0.03 vs placebo, FIG. 10A): 40 ± 43 mL
- volume of extra fluid removed during the dialysis above the baseline prescription ([4]; p=0.045 vs. placebo, FIG. 10B): 460 ± 100 mL
